Data: ChEMBL document CHEMBL4507319 (2021)

Columns and labels:
Conditions in all cases: Compound concentration 1.0 uM
[1] = molecular target: Casein kinase I isoform delta (Homo sapiens) (UniProt P48730); assay: CK1delta(h) Eurofins kinase panel
[2] = molecular target: NT-3 growth factor receptor (Homo sapiens) (UniProt Q16288); assay: TrkC(h) Eurofins kinase panel
[3] = molecular target: Epithelial discoidin domain-containing receptor 1 (Homo sapiens) (UniProt Q08345); assay: DDR1(h) Eurofins kinase panel
Epithelial discoidin domain-containing receptor 1 (Homo sapiens), sequence (Q08345 whole entry, the tested form may be a part): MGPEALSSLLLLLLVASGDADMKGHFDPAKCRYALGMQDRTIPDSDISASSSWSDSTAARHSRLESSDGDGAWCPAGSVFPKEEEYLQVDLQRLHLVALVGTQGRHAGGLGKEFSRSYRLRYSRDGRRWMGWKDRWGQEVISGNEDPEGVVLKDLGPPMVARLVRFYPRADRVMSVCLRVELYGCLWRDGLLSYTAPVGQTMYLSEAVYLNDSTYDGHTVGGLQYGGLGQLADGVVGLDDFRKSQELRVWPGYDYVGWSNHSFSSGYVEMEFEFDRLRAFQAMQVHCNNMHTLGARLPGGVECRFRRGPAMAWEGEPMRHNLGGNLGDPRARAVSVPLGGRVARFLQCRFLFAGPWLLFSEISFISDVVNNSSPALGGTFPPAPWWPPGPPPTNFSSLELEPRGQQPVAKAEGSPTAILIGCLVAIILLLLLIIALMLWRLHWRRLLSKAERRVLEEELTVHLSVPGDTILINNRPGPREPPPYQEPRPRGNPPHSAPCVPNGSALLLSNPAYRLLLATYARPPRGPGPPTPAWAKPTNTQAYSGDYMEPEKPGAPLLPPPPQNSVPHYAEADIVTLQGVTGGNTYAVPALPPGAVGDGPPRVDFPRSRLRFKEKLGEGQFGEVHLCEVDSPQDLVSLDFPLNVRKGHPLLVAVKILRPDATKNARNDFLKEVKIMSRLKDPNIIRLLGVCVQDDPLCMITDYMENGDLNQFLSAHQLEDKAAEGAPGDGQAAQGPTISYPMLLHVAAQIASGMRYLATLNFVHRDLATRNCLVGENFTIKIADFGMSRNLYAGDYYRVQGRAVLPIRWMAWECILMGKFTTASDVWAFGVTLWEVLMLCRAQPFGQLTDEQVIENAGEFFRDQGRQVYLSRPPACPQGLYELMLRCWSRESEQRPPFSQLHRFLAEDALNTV

[4] = molecular target: Calcium/calmodulin-dependent protein kinase kinase 2 (Homo sapiens) (UniProt Q96RR4); assay: CaMKK2(h) Eurofins kinase panel
Calcium/calmodulin-dependent protein kinase kinase 2 (Homo sapiens), sequence (Q96RR4 2-588 limits assumed): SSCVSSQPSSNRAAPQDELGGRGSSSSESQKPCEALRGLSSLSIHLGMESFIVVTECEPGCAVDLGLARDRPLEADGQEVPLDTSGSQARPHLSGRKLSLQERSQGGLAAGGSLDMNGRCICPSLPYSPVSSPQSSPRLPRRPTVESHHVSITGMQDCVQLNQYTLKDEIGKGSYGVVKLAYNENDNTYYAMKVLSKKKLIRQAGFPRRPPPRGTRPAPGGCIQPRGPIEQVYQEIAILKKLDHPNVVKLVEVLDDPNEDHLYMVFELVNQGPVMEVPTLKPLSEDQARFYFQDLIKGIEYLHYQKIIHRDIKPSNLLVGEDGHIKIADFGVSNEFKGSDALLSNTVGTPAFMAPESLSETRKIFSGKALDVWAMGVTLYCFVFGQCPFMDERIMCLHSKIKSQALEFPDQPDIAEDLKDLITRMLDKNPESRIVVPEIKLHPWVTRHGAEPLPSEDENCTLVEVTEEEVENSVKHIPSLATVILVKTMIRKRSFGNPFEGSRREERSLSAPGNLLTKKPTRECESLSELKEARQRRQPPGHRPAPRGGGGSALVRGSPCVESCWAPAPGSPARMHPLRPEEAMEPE

[5] = molecular target: Serine/threonine-protein kinase N1 (Homo sapiens) (UniProt Q16512); assay: PRK1(h) Eurofins kinase panel
Serine/threonine-protein kinase N1 (Homo sapiens), sequence (Q16512 2-942 limits assumed): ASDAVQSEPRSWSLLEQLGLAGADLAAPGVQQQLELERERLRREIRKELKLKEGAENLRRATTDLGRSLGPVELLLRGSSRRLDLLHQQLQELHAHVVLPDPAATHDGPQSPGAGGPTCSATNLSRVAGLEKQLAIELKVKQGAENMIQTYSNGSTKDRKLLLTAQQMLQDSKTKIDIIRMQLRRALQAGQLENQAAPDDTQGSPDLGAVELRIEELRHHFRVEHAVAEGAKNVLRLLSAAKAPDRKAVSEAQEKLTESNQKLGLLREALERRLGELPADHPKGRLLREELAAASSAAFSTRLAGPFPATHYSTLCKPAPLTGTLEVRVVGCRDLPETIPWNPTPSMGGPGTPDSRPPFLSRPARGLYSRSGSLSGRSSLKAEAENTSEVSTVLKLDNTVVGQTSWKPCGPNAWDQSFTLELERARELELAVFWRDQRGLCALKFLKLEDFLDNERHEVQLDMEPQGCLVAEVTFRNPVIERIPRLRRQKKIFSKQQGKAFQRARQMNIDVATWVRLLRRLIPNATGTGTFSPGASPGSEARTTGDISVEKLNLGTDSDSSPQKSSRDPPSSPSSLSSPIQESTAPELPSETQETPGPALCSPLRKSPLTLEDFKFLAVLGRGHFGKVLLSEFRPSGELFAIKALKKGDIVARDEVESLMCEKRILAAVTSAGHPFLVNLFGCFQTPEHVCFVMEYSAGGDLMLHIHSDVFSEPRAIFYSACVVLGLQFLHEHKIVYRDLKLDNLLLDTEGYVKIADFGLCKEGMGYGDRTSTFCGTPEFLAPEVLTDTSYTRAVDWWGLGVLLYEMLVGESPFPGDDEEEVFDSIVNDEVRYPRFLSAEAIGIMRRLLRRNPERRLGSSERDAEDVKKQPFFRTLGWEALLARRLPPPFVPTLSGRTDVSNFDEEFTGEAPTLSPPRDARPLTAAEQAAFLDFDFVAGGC

[6] = molecular target: T1, Inhibitor of nuclear factor kappa-B kinase subunit epsilon (Homo sapiens) (UniProt Q14164); assay: IKKepsilon(h) Eurofins kinase panel
T1 sequence (whole entry): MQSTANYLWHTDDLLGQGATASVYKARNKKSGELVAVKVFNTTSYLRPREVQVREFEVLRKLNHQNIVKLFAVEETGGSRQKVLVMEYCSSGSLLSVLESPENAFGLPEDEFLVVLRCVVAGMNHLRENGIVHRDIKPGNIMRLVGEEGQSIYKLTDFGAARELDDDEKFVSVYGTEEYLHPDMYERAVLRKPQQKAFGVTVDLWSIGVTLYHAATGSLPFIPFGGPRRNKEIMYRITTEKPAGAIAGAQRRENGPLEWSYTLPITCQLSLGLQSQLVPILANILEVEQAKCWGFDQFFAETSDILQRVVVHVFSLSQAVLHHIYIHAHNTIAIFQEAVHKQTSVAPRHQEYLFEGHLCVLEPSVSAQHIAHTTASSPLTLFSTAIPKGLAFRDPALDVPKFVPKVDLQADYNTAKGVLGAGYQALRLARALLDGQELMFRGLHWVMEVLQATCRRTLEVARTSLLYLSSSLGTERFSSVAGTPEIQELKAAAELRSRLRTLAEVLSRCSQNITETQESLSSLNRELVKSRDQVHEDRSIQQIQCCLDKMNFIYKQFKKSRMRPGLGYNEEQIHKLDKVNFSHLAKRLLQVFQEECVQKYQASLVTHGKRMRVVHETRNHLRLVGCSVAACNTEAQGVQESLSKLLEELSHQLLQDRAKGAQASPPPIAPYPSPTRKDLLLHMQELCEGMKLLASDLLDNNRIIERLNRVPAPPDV

[7] = molecular target: T2, Activin receptor type-1B (Homo sapiens) (UniProt P36896); assay: ALK4(h) Eurofins kinase panel
T2 sequence (whole entry): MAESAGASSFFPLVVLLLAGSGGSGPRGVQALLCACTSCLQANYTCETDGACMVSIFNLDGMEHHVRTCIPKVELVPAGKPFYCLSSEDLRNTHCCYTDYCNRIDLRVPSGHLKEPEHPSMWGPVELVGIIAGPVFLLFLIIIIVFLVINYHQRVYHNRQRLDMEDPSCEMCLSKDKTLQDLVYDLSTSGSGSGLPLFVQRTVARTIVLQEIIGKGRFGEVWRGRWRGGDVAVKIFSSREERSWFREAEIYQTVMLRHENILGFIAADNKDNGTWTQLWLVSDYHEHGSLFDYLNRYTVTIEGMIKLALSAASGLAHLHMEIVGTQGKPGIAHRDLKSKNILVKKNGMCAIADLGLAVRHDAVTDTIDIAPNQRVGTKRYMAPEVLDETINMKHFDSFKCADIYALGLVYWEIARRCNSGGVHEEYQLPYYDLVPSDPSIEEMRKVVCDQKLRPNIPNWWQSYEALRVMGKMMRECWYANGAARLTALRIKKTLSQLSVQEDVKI

[8] = molecular target: T3, Serine/threonine-protein kinase TAO2 (Homo sapiens) (UniProt Q9UL54); assay: TAO2(h) Eurofins kinase panel
T3 sequence (whole entry): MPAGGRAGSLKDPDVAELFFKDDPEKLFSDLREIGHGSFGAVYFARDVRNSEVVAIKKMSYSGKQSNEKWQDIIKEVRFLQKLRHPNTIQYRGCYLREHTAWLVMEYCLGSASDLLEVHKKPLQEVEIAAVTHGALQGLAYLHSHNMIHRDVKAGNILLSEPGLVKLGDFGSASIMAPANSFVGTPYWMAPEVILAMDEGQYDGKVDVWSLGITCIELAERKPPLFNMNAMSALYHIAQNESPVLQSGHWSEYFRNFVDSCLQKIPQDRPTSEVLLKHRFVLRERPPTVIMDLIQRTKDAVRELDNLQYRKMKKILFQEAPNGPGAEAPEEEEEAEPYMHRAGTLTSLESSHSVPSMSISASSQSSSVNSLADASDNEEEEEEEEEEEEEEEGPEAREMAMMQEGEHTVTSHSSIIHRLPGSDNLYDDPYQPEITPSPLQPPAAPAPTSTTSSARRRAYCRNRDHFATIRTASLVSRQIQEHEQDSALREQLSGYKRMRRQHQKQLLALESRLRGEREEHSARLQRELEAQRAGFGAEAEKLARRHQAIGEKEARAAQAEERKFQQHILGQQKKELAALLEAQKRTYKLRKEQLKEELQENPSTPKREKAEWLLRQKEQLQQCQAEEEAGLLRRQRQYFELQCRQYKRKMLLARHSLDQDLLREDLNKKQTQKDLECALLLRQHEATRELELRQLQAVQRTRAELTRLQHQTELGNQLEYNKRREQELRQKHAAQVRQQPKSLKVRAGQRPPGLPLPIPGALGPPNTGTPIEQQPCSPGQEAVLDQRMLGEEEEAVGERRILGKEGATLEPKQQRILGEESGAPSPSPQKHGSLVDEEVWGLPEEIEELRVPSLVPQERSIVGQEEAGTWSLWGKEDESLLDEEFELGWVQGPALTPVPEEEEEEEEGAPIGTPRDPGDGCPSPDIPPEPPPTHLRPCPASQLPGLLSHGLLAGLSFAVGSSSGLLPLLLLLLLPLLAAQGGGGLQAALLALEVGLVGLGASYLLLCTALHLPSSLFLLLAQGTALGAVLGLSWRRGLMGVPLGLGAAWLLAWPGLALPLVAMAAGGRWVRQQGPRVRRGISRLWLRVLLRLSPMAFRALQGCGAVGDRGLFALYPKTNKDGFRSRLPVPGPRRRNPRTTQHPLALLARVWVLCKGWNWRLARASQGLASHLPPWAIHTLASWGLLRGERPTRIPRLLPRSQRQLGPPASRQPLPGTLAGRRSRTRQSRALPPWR

Measured: % residual kinase activity

Casein kinase I isoform delta (Homo sapiens), sequence (P48730 whole entry, looked up, canonical isoform): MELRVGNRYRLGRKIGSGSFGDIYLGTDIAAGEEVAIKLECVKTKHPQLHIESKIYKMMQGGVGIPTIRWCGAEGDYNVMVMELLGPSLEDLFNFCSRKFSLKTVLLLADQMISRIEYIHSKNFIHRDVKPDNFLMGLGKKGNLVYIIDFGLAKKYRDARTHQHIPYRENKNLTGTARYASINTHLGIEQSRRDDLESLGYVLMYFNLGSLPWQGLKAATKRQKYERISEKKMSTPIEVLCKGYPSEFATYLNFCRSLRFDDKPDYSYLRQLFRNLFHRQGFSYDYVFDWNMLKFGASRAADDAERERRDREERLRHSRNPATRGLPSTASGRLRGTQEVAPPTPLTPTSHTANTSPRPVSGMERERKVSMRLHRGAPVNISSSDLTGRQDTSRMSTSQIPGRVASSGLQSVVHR
NT-3 growth factor receptor (Homo sapiens), sequence (Q16288 32-839 limits assumed): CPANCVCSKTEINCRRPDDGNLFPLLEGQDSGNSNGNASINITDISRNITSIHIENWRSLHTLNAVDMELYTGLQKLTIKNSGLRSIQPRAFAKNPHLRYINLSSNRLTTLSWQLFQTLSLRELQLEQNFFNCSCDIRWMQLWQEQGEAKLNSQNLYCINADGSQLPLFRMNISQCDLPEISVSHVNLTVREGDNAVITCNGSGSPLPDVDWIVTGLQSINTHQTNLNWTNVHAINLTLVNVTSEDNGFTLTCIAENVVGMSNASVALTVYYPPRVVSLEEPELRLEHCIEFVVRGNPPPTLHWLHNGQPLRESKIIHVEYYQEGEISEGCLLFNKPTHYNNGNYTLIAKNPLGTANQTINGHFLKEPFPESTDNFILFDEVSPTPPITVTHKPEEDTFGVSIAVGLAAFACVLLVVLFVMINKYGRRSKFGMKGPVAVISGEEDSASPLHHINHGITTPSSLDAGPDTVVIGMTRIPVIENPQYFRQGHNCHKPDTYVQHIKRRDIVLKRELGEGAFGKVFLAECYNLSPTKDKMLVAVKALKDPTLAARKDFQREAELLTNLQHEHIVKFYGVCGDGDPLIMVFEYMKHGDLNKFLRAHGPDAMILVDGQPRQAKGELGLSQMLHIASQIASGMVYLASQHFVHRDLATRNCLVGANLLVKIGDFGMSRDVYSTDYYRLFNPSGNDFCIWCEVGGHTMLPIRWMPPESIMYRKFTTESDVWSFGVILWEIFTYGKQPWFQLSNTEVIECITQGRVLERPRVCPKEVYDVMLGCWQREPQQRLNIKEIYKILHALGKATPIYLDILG

CCc1ccccc1C(=O)Nc1n[nH]c2c(C)c(F)c(C3C(C#N)=C(C)N(C)C(C)=C3C#N)cc12 [BAY-3827]
inactive: [1] 94% | [2] 133% | [3] 32% | [4] 101% | [5] 74% | [6] 108% | [7] 90% | [8] 104%
